Values after ≈ are worked out from the molar mass of the structure shown. Where a name gives a salt, the structure may show the parent alone.

The first assay deals with heart beat rate in the ventricle of mice placed in chloroform gas. The experiment in a line: Anti-arrhythmic effect, Block's method (chloroform-induced, ventricular heart beat rate by electrocardiogram). In kind it is in vivo, mice (ICR strain). The settings on record: Mus musculus, ip, read-out: ED50 % (effective = heart beat rate in the ventricle reduced to less than 400 beats/minute).
Protocol: Test procedures: (Block's method)
Onto a 2 liter desiccator were placed 150 ml of chloroform and this was stirred with a magnetic stirrer while being heating by an incandescent lamp. When the desiccator was saturated with chloroform gas, mice (ICR strain, body weight between 20 and 25 g) were placed therein for 2 minutes and then the chest was opened. Silver dipolar electrodes were contacted with the ventricles and electrocardiograms were taken for 1 minute. Within 10-20 minutes, the test compound was administered intraperitoneally in a carboxymethyl-cellulose solution as vehicle.
As to `CCC[C@@]12CCC[C@H]3[C@H](N)Cc4c(n(c5ccccc45)C(=O)C1)[C@H]32` (relative stereo) [Compound No. 96], the ED50 was 3.6 mg/kg.

Consider `CC[C@@]12CCC[C@H]3[C@H](N)Cc4c(n(c5ccccc45)C(=O)C1)[C@H]32` (relative stereo) [Compound No. 110], for which the ED50 was 14 mg/kg.

Turning to `CC[C@]12CCC[C@@H]3[C@H]1c1c(c4cc(O)ccc4n1C(=O)C2)C[C@H]3C(=O)NNCCN1CCCC1` (relative stereo) [Compound No. 146, 7-Hydroxy-12aβ-ethyl-4β-{3-[2-(1-pyrrolidinyl)ethyl]carbazoyl}-2,3,3aβ,4α,5,12,12aβ,12bβ-octahydrobenzo[d,e]indolo[3,2,1-i,j]quinolin-11(1H)-one hemihydrate], the ED50 is 22.5 mg/kg.

`N[C@@H]1Cc2c3n(c4ccc(O)cc24)C(=O)C[C@@]2(c4ccccc4)CCC[C@@H]1[C@@H]32` (relative stereo) [Compound No. 162]: the ED50 turned out to be 12 mg/kg.

`CC[C@@]12CCC[C@H]3[C@H](N)Cc4c(n(c5ccc(O)cc45)C(=O)C1)[C@H]32` (relative stereo) [Compound No. 197, 4β-Amino-12aβ-ethyl-7-hydroxy-2,3,3aβ,4α,5,12,12aβ,12bβ-octahydrobenzo[d,e]indolo[3,2,1-i,j]quinolin-11(1H)-one hemihydrate]: the ED50 came to 22.5 mg/kg.

For `CCC[C@@]12CCC[C@H]3[C@H](N)Cc4c(n(c5ccc(O)cc45)C(=O)C1)[C@H]32` (relative stereo) [Compound No. 198], the ED50 came out at 4.2 mg/kg.

In a further assay the test system is rats with ischemic brains. Put plainly: Improvement of brain function: time until recovery of the righting reflex in rats with ischemic brains. In kind it is in vivo, male rats of the Wistar strain. Particulars: 10 mg/kg i.p. The procedure: A test for recovery of brain function was performed using rats with ischemic brains. The bilaterial carotid arteries of male rats of the Wistar strain were ligated under anesthesia with thiopental (50 mg/kg, intraperitoneally) and the test compounds and a 0.5% w/v carboxymethylcellulose solution (vehicle) were intraperitoneally administered at the same time. The time until recovery of the righting relex was measured to give an index of the brain function. […] The known compound, Pentoxifylline, was tested in the same way, for comparison.
Consider `O=C(O)[C@@H]1C=C2c3cc(Br)ccc3N3C(=O)C[C@H]4CC[C@@H]1[C@H]4[C@H]23` (relative stereo) [Compound No. 18], for which the “Ratio to Control (time until recovery of the righting reflex)” value (from here on “Ratio to Control”) was 0.84.

Still in this assay, the particulars now being: 30 mg/kg i.p.
Consider `O=C(O)[C@@H]1C=C2c3cc(Br)ccc3N3C(=O)C[C@H]4CC[C@@H]1[C@H]4[C@H]23` (relative stereo) [Compound No. 18], for which the “Ratio to Control” value is 0.68.

As for `CC(=O)CCCCn1c(=O)c2c(ncn2C)n(C)c1=O` [Pentoxifylline, reference compound], the “Ratio to Control” value is 0.82.

For a further assay, the system named is arrhythmias induced by ischemic cardiac dysfunction caused by ligation of the coronary arteries of a perfusing heart. The experiment in a line: Anti-arrhythmic effect: protection against arrhythmias induced by ischemia (coronary artery ligation and re-perfusion) of a perfusing heart, method of Opie et al. The settings on record: Rattus norvegicus, read-out: ED70 (concentration required for 70% suppression of the arrhythmias during ligation and after re-perfusion). Details: species or system male rats of Sprague-Dawley strain. On the procedure: The test was performed according to the method of L. H. Opie et al [Cardiovascular Research, 12, 212 (1978)] using male rats of Sprague-Dawley strain weighing between 230 and 330 g. The antiarrhythmic effect was estimated by the ability of the test compound administered intravascularly to protect against the arrhythmias induced by ischemic cardiac dysfunction caused by ligation of the coronary arteries of a perfusing heart.
The test compounds were dissolved in dimethyl sulfoxide, and the required amount of injectible solution was prepared by mixing this with Krebs-Henseleit solution. The degree of protecting effect is reported as the concentration (ED70) required for 70% suppression of the arrhythmias during ligation and after re-perfusion.
For the molecule `COC(=O)[C@@H]1Cc2c3n(c4ccccc24)C(=O)C[C@H]2CC[C@@H]1[C@@H]32` (relative stereo) [Compound No. 35, Methyl 1,2,2aβ,3α,4,11,11aβ,11bβ-octahydro-10-oxo-10H-cyclopenta[d,e]indolo[3,2,1-i,j]quinoline-3β-carboxylate], the EC70 was 4.2 µg/mL (≈ 13.6 µM).

Still in this assay, the particulars now being: rat perfusing heart, test compound administered intravascularly; read-out: ED70 (concentration required for 70% suppression of the arrhythmias during ligation and after re-perfusion).
Regarding `C[C@@]12C3=C[C@@H](N)[C@@H]4CC[C@H](CC(=O)N1c1ccccc13)[C@@H]42` (relative stereo) [Compound No. 26, 3β-Amino-1,2,2aβ,3α,11,11aβ,11bβ,11cα-octahydro-11cα-methylcyclopenta[d,e]indolo[3,2,1-i,j]quinolin-10-one hydrochloride], the EC70 is 0.9 µg/mL.

Consider `N[C@@H]1Cc2c3n(c4ccccc24)C(=O)C[C@H]2CC[C@@H]1[C@@H]32` (relative stereo) [Compound No. 55, 3β-Amino-1,2,2aβ,3α,4,11,11aβ,11bβ-octahydrocyclopenta[d,e]indolo[3,2,1-i,j]quinolin-10-one maleate], for which the EC70 was 0.64 µg/mL.

For the molecule `CC[C@@]12CC[C@H]3[C@H](N)Cc4c(n(c5ccccc45)C(=O)C1)[C@H]32` (relative stereo) [Compound No. 59], the EC70 was 0.23 µg/mL (≈ 0.781 µM).

With `CN(C)[C@@H]1Cc2c3n(c4ccccc24)C(=O)C[C@H]2CC[C@@H]1[C@@H]32` (relative stereo) [Compound No. 65, 1,2,2aβ,3α,4,11,11aβ,11bβ-Octahydro-3β-dimethylaminocyclopenta[d,e]indolo[3,2,1-i,j]quinolin-10-one maleate], the EC70 stood at 0.3 µg/mL.

As to `N[C@@H]1Cc2c3n(c4ccccc24)C(=O)C[C@H]2CCC[C@@H]1[C@@H]32` (relative stereo) [Compound No. 106, 4β-amino-2,3,3aβ,4α,5,12,12aβ,12bβ-octahydrobenzo[d,e]indolo[3,2,1-i,j]quinolin-11(1H)-one maleate], the EC70 came to 1 µg/mL.

As for `CC[C@@]12CCC[C@H]3[C@H](N)Cc4c(n(c5ccccc45)C(=O)C1)[C@H]32` (relative stereo) [Compound No. 110], the EC70 was determined as 0.16 µg/mL (≈ 0.519 µM).

In the case of `N[C@@H]1Cc2c3n(c4ccccc24)C(=O)C[C@H]2CCCC[C@@H]1[C@@H]32` (relative stereo) [Compound No. 228], the EC70 amounted to 0.9 µg/mL (≈ 3.06 µM).

Consider `CC(C)N(CCC(C(N)=O)(c1ccccc1)c1ccccn1)C(C)C` (centres unmarked) [Disopyramide, reference compound], for which the EC70 is 10 µg/mL (≈ 29.5 µM).

With `CCN(CC)CC(=O)Nc1c(C)cccc1C` [Lidocaine, reference compound], the EC70 came to 5 µg/mL (≈ 21.3 µM).

For a further assay, the system named is male mice of the DDY strain. The experiment in a line: Diuretic effect: urine volume and sodium ion concentration by the filter paper method (Mineshita et al). In kind it is in vivo. The settings on record: 100 mg/kg p.o. The procedure:
The diuretic test was performed on groups of 5 male mice of the DDY strain, each weighing between 26 and 30 g. The test solutions were prepared by dissolving the test compounds in physiological saline containing 0.3% w/v carboxymethylcellulose and were administered orally to the animals. The urine volume and sodium ion concentration were estimated by the filter paper method [Mineshita et al: Pharmacometrics, 4, 33 (1970)]. In Table 13, the increase of the urine volume and sodium ion concentration are shown as a percentage of the values of a control group to which no active compound was administered.
`O=C(O)[C@@H]1C=C2c3ccccc3N3C(=O)C[C@H]4CC[C@@H]1[C@H]4[C@H]23` (relative stereo) [Compound No. 14, 1,2,2aβ,3α,11,11aβ,11bβ,11cα-Octahydro-10-oxo-10H-cyclopenta[d,e]indolo[3,2,1-i,j]quinoline-3α-carboxylic acid]: the “Urine Volume (increase as a percentage of the values of a control group)” value is 231% and the “δNa^+ (increase of sodium ion concentration as a percentage of the values of a control group)” value worked out at 245%.

Turning to `O=C(O)[C@@H]1C=C2c3cc(Br)ccc3N3C(=O)C[C@H]4CC[C@@H]1[C@H]4[C@H]23` (relative stereo) [Compound No. 18], the “Urine Volume (increase as a percentage of the values of a control group)” value came to 86% and the “δNa^+ (increase of sodium ion concentration as a percentage of the values of a control group)” value is 168%.

Values taken from patent US4716162A, “Fused 5 ring heterocyclic compounds, their preparation, and their anti-arrhythmic and diuretic use” (Sankyo Company, Limited, priority 1984, dated 1987).
